Consider four molecules from patent US12123030B2, “Polynucleotides encoding lipoprotein lipase for the treatment of hyperlipidemia” (ModernaTX, Inc., priority 2016, dated 2024).

One data set relates to triglycerides. Particulars: existing hyperlipidemia treatment, patients; cited from earlier work.
Data set [1] concerns triglycerides in HTG patients. Particulars: existing HTG treatments; cited from earlier work.
For a further data set, the system named is IL-6. The data set is described as follows: Cytokine expression after nanoparticle compositions: IL-6. The format is in vivo. Conditions: 6 h; nanoparticle composition including the compound.
In a further data set the test system is hEPO. Description: hEPO expression from nanoparticle compositions. It is filed as in vivo. Conditions: for hEPO expression: nanoparticle composition including the compound; for Average hEPO concentration: Table 9.
For a further data set, the system named is adult rat. The data set is described as follows: Dose range finding (DRF) study in adult rat. The format is in vivo. Particulars: one month, one dose per week (5 total doses). The method, then:
(§1) Dose range finding (DRF) studies using surrogate Compound 18 are in progress to further examine the Compound 18 programs. One month of a DRF study, consisting of one dose per week (5 total doses) in adult rat was performed in order to measure hematology, clinical chemistry, and full pathology. […] Additionally, one month of GLP dose studies, consisting of five doses (one per week) via IV infusion will be administered to rats in order to examine safety pharmacology measures, including central nervous system (rats) and cardiovascular system (monkeys), such as heart rate, blood pressure, and EKG readings. Furthermore, gene toxicity studies were be undertaken, in vitro, using a 4 strain Ames test, and in vitro micronucleous hPBMCs. […] An in vivo mouse micronucleus assay will also be performed to further investigate the Compound 18/5-methoxy uridine (mo5U) modification chemistry.

In another data set the test system is 4 strain Ames test. The data set is described as follows: 4 strain Ames test. It is filed as cell-based. Conditions: in vitro. The procedure:
as §1
Background: In the Ames test, an excess of revertant colonies over the control signals mutagenicity.

For a further data set, the system named is IP-10. Description: Cytokine expression after nanoparticle compositions: IP-10. It is filed as in vivo. Conditions: 6 h; nanoparticle composition including the compound.
For a further data set, the system named is ffluc. The data set is described as follows: Average total flux (ffluc) from nanoparticle compositions. The format is in vivo. Conditions: 6 h.

In the case of `O=C(O)c1cccnc1` [Nicotinic acid], the reduction in triglycerides (in the data set with triglycerides; in data set [1]) was 15-25% throughout.
For the molecule `CCCCCCCCCOC(=O)CCCCCCCN(CCO)CCCCCCCC(=O)OC(CCCCCCCC)CCCCCCCC` [Compound 18, Heptadecan-9-yl 8-((2-hydroxyethyl)(8-(nonyloxy)-8-oxooctyl)amino) octanoate], the “Cytokine expression IL-6” value with IL-6 turned out to be 10.16 pg/mL. The hEPO expression in the data set on hEPO (3 h) is 3e+06 pg/mL. Further, the “Average hEPO concentration” value with hEPO (6 h) was 3.38e+06 pg/mL. For the same molecule, the hEPO expression in the data set with hEPO (24 h) stood at 1.8e+06 pg/mL. Moreover, in the data set on adult rat, the adverse events result is recorded as “No adverse events were reported” and the clinical chemistry entry is listed as “normal”. The “mutagenic potential (Ames data)” value in the data set with 4 strain Ames test is “does not have mutagenic potential”. Also, in the data set on IP-10, the “Cytokine expression IP-10” value was 299.93 pg/mL.
As to `CCCCC/C=C\C/C=C\CCCCCCCCC(CCCCCCCC/C=C\C/C=C\CCCCC)OC(=O)CCCN(C)C` [MC3], the “Cytokine expression IL-6” value in the data set with IL-6 amounted to 19.85 pg/mL. Besides, the results for the hEPO expression in the data set with hEPO (3 h), with hEPO (6 h) and in the data set on hEPO (24 h) were 1.57e+06 pg/mL, 1.83e+06 pg/mL and 810000 pg/mL, respectively. Further, in the data set with hEPO (6 h), the “Average hEPO concentration” value was found to be 1.83e+06 pg/mL. Moreover, in the data set on ffluc, the Average total flux was 6.59 × 10^9. For the same molecule, the “Cytokine expression IP-10” value in the data set with IP-10 was 117.94 pg/mL.
Turning to `CCCCC/C=C\C/C=C\CCCCCCCCN(CCO)CCCCCCCC(=O)OC(CCCCCCCC)CCCCCCCC` [Compound 6], in the data set with IL-6, the “Cytokine expression IL-6” value amounted to 10.15 pg/mL. Besides, the Average total flux in the data set with ffluc was 7.60 × 10^9. Besides, the “Cytokine expression IP-10” value in the data set on IP-10 was 116.66 pg/mL.
